The record followed here is the supplement of paper PMC10307832.

Holding throughout (assay): relative viability (nuclei count vs DMSO), 5 days (fraction); higher = more cells survive
Compound in the test “AGI-6780 + Vorinostat”: O=C(Nc1cccc(C(F)(F)F)c1)Nc1cc(S(=O)(=O)NC2CC2)ccc1-c1ccsc1 [AGI-6780] + O=C(CCCCCCC(=O)Nc1ccccc1)NO [Vorinostat] (partner 1 µM)
In outline:
(§1)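 Relative viability was taken as the ratio of nuclei in treated wells to nuclei in vehicle wells. Lung cancer cell lines in 1536-well plates received compounds by pin tool one day after seeding, either one drug alone or a fixed anchor-drug dose plus five library-drug doses (not always all listed) in √10 steps. Nuclei were counted on 4× images after 5 days of treatment, and values are medians of duplicate plates.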

Compound in the test “AGI-6780 + Navitoclax”: O=C(Nc1cccc(C(F)(F)F)c1)Nc1cc(S(=O)(=O)NC2CC2)ccc1-c1ccsc1 [AGI-6780] + CC1(C)CCC(c2ccc(Cl)cc2)=C(CN2CCN(c3ccc(C(=O)NS(=O)(=O)c4ccc(N[C@H](CCN5CCOCC5)CSc5ccccc5)c(S(=O)(=O)C(F)(F)F)c4)cc3)CC2)C1 [Navitoclax] (partner 0.5 µM)
Summed up: as §1

Compound in the test “AGI-6780 + Crizotinib”: O=C(Nc1cccc(C(F)(F)F)c1)Nc1cc(S(=O)(=O)NC2CC2)ccc1-c1ccsc1 [AGI-6780] + C[C@@H](Oc1cc(-c2cnn(C3CCNCC3)c2)cnc1N)c1c(Cl)ccc(F)c1Cl [Crizotinib] (partner 1 µM)
In outline: as §1

Compound in the test “AGI-6780 + Dasatinib”: O=C(Nc1cccc(C(F)(F)F)c1)Nc1cc(S(=O)(=O)NC2CC2)ccc1-c1ccsc1 [AGI-6780] + Cc1nc(Nc2ncc(C(=O)Nc3c(C)cccc3Cl)s2)cc(N2CCN(CCO)CC2)n1 [Dasatinib] (partner 0.075 µM)
In outline:
as §1

CAL-12T: the relative viability in the test with AGI-6780 + Vorinostat (first compound 0.08 µM) was 0.884; in the test with AGI-6780 + Vorinostat (first compound 0.253 µM), 0.729; with AGI-6780 + Vorinostat (first compound 0.8 µM) it was 1.16; in the test with AGI-6780 + Vorinostat (first compound 2.53 µM), 0.662; in the test with AGI-6780 + Vorinostat (first compound 8 µM), 0.732; in the test with AGI-6780 + Navitoclax (first compound 0.08 µM) it was 1.2. Further, the relative viability was determined as 1.17 with AGI-6780 + Navitoclax (first compound 0.253 µM); 1.38 in the test with AGI-6780 + Navitoclax (first compound 0.8 µM); 1.53 with AGI-6780 + Navitoclax (first compound 2.53 µM); 1.25 in the test with AGI-6780 + Navitoclax (first compound 8 µM); 0.686 in the test with AGI-6780 + Crizotinib (first compound 0.08 µM); 0.681 with AGI-6780 + Crizotinib (first compound 0.253 µM). The relative viability with AGI-6780 + Crizotinib (first compound 0.8 µM) was determined as 0.61; with AGI-6780 + Crizotinib (first compound 2.53 µM), 0.87; with AGI-6780 + Crizotinib (first compound 8 µM) it was 0.716; with AGI-6780 + Dasatinib (first compound 0.08 µM), 0.549; with AGI-6780 + Dasatinib (first compound 0.253 µM) it was 0.501; in the test with AGI-6780 + Dasatinib (first compound 0.8 µM), 0.676. For the same cell line, the relative viability with AGI-6780 + Dasatinib (first compound 2.53 µM) was 0.4; with AGI-6780 + Dasatinib (first compound 8 µM) it was 0.487.
Consider NCI-H1666, for which the relative viability with AGI-6780 + Vorinostat (first compound 0.08 µM) was 1.01; in the test with AGI-6780 + Vorinostat (first compound 0.253 µM) it was 0.996; with AGI-6780 + Vorinostat (first compound 0.8 µM), 1.04; with AGI-6780 + Vorinostat (first compound 2.53 µM), 0.902; with AGI-6780 + Vorinostat (first compound 8 µM), 1.06; in the test with AGI-6780 + Navitoclax (first compound 0.08 µM), 0.985. In addition, the relative viability with AGI-6780 + Navitoclax (first compound 0.253 µM) came out at 0.894; with AGI-6780 + Navitoclax (first compound 0.8 µM), 0.909; with AGI-6780 + Navitoclax (first compound 8 µM), 0.92; with AGI-6780 + Crizotinib (first compound 0.08 µM), 1.09; with AGI-6780 + Crizotinib (first compound 0.253 µM) it was 0.897; with AGI-6780 + Crizotinib (first compound 0.8 µM), 1.03. Also, the relative viability with AGI-6780 + Crizotinib (first compound 8 µM) is 1.05; with AGI-6780 + Dasatinib (first compound 0.08 µM) it was 0.785; with AGI-6780 + Dasatinib (first compound 0.253 µM) it was 0.79; in the test with AGI-6780 + Dasatinib (first compound 0.8 µM), 0.872; with AGI-6780 + Dasatinib (first compound 2.53 µM) it was 0.708; with AGI-6780 + Dasatinib (first compound 8 µM), 0.877.
Take NCI-H1915: the relative viability with AGI-6780 + Vorinostat (first compound 0.08 µM) was found to be 0.563; with AGI-6780 + Vorinostat (first compound 0.253 µM), 0.538; in the test with AGI-6780 + Vorinostat (first compound 0.8 µM), 0.516; with AGI-6780 + Vorinostat (first compound 2.53 µM), 0.468; with AGI-6780 + Vorinostat (first compound 8 µM) it was 0.482; with AGI-6780 + Navitoclax (first compound 0.08 µM), 0.818. For the same cell line, the relative viability in the test with AGI-6780 + Navitoclax (first compound 0.253 µM) was 0.781; with AGI-6780 + Navitoclax (first compound 0.8 µM), 0.746; in the test with AGI-6780 + Navitoclax (first compound 2.53 µM), 0.808; in the test with AGI-6780 + Navitoclax (first compound 8 µM) it was 0.738; in the test with AGI-6780 + Crizotinib (first compound 0.08 µM), 0.885; in the test with AGI-6780 + Crizotinib (first compound 0.253 µM) it was 0.88. In addition, the relative viability worked out at 0.902 with AGI-6780 + Crizotinib (first compound 0.8 µM); 0.857 with AGI-6780 + Crizotinib (first compound 2.53 µM); 0.835 in the test with AGI-6780 + Crizotinib (first compound 8 µM); 0.358 with AGI-6780 + Dasatinib (first compound 0.08 µM); 0.333 with AGI-6780 + Dasatinib (first compound 0.253 µM); 0.344 with AGI-6780 + Dasatinib (first compound 0.8 µM). Besides, the relative viability with AGI-6780 + Dasatinib (first compound 2.53 µM) worked out at 0.249; in the test with AGI-6780 + Dasatinib (first compound 8 µM) it was 0.304.
As to NCI-H2085, the relative viability turned out to be 0.787 with AGI-6780 + Vorinostat (first compound 0.08 µM); 0.832 with AGI-6780 + Vorinostat (first compound 0.253 µM); 0.841 with AGI-6780 + Vorinostat (first compound 0.8 µM); 0.865 with AGI-6780 + Vorinostat (first compound 2.53 µM); 0.727 with AGI-6780 + Vorinostat (first compound 8 µM); 1.15 with AGI-6780 + Navitoclax (first compound 0.08 µM). The relative viability turned out to be 1.07 in the test with AGI-6780 + Navitoclax (first compound 0.253 µM); 1.1 with AGI-6780 + Navitoclax (first compound 0.8 µM); 1.08 with AGI-6780 + Navitoclax (first compound 2.53 µM); 1.2 in the test with AGI-6780 + Navitoclax (first compound 8 µM); 0.817 with AGI-6780 + Crizotinib (first compound 0.08 µM); 1.01 with AGI-6780 + Crizotinib (first compound 0.253 µM). In addition, the relative viability with AGI-6780 + Crizotinib (first compound 0.8 µM) is 0.926; with AGI-6780 + Crizotinib (first compound 2.53 µM), 0.933; in the test with AGI-6780 + Crizotinib (first compound 8 µM) it was 0.927; in the test with AGI-6780 + Dasatinib (first compound 0.08 µM), 0.272; with AGI-6780 + Dasatinib (first compound 0.253 µM) it was 0.255; with AGI-6780 + Dasatinib (first compound 0.8 µM), 0.276. Further, the results for the relative viability in the test with AGI-6780 + Dasatinib (first compound 2.53 µM) and with AGI-6780 + Dasatinib (first compound 8 µM) were 0.24 and 0.243, respectively.
